“And” between values parts separate entries of the source, which are not always exact repeats. Equal values may be shown once.
Tests used:
FP S33A = target: T1, FP S33A (Homo sapiens, UniProt P43088, S33A); experiment: IP-One accumulation assay, FP S33A mutant; format: cell-based; conditions: S33 to alanine vs WT FP
T1 construct: Flag; expressed in transfected cells; host or cells: AD293 cells
Experimental: (§1) IP-One production was measured using the IP-One HTRF kit (Cisbio)[50]. Briefly, AD293 cells (Agilent) were grown to a density of 400,000–500,000 cells per mL and then […] with separate plasmids at a suitable concentration. The culture was collected by centrifugation 24 h after incubation at 37 °C in 5% CO2 with a Stimulation Buffer. The cell suspension was then dispensed in a white 384-well plate at a volume of 7 μl per well before adding 7 μl of ligands. The mixture was incubated for 1 h at 37 °C. IP-One-d2 and anti-IP-One Cryptate dissolved in Lysis Buffer (3 μl each) were subsequently added and incubated for 15-30 min at room temperature before measurement. Intracellular IP-One measurement was carried out with the IP-One HTRF kit and EnVision multi-plate reader (PerkinElmer) according to the manufacturer’s instructions. Data were normalized to the baseline response of the ligand. pEC50 Emin, and Emax for each curve were calculated by GraphPad Prism 8.0. ∆pEC50 equals pEC50 of agonists to specific Mutant minus pEC50 of agonists to WT. Data are presented as mean values ± SEM; n = 3 independent samples; n.s. no significant; *p < 0.05; **p < 0.01; ***p < 0.001.

FP T184A = target: T2, FP T184A (Homo sapiens, UniProt P43088, T184A); experiment: IP-One accumulation assay, FP T184A mutant; format: cell-based; conditions: T184 mutant (alanine) vs WT FP
T2 construct: Flag; expressed in transfected cells; host or cells: AD293 cells
Experimental: as §1

EP3 = system: EP3; set-up: method as in PMID 10785618; conditions: cited from earlier work
FP I298A = target: T3, FP I298A (Homo sapiens, UniProt P43088, I298A); experiment: IP-One accumulation assay, FP I298A mutant; format: cell-based; conditions: I298A mutant vs WT FP; IP1 accumulation, AD293 cells; single values of n = 3 independent samples
T3 construct: Flag; expressed in transfected cells; host or cells: AD293 cells
Experimental: as §1

FP T294A = target: T4, FP T294A (Homo sapiens, UniProt P43088, T294A); experiment: IP-One accumulation assay, FP T294A mutant; format: cell-based
T4 construct: Flag; expressed in transfected cells; host or cells: AD293 cells
Experimental: as §1

FP = system: FP; set-up: method as in PMID 10785618; conditions: cited from earlier work
FP S118F = target: T5, FP S118F (Homo sapiens, UniProt P43088, S118F); experiment: IP-One accumulation assay, FP S118F mutant; format: cell-based; conditions: S118F mutant vs WT FP; IP1 accumulation, AD293 cells; single values of n = 3 independent samples
T5 construct: Flag; expressed in transfected cells; host or cells: AD293 cells
Experimental: as §1

FP S118N = target: T6, FP S118N (Homo sapiens, UniProt P43088, S118N); experiment: IP-One accumulation assay, FP S118N mutant; format: cell-based
T6 construct: Flag; expressed in transfected cells; host or cells: AD293 cells
Experimental: as §1

FP Q297A = target: T7, FP Q297A (Homo sapiens, UniProt P43088, Q297A); experiment: IP-One accumulation assay, FP Q297A mutant; format: cell-based; conditions: Q297A mutant vs WT FP; IP1 accumulation, AD293 cells; single values of n = 3 independent samples
T7 construct: Flag; expressed in transfected cells; host or cells: AD293 cells
Experimental: as §1

FP W185A = target: T8, FP W185A (Homo sapiens, UniProt P43088, W185A); experiment: IP-One accumulation assay, FP W185A mutant; format: cell-based; conditions: W185A mutant vs WT FP; IP1 accumulation, AD293 cells; single values of n = 3 independent samples
T8 construct: Flag; expressed in transfected cells; host or cells: AD293 cells
Experimental: as §1

FP S118A = target: T9, FP S118A (Homo sapiens, UniProt P43088, S118A); experiment: IP-One accumulation assay, FP S118A mutant; format: cell-based
T9 construct: Flag; expressed in transfected cells; host or cells: AD293 cells
Experimental: as §1

FP R291A = target: T10, FP R291A (Homo sapiens, UniProt P43088, R291A); experiment: IP-One accumulation assay, FP R291A mutant; format: cell-based; conditions: R291 mutant (alanine) vs WT FP
T10 construct: Flag; expressed in transfected cells; host or cells: AD293 cells
Experimental: as §1

FP M115A = target: T11, FP M115A (Homo sapiens, UniProt P43088, M115A); experiment: IP-One accumulation assay, FP M115A mutant; format: cell-based; conditions: M115 to alanine vs WT FP
T11 construct: Flag; expressed in transfected cells; host or cells: AD293 cells
Experimental: as §1

FP F265A = target: T12, FP F265A (Homo sapiens, UniProt P43088, F265A); experiment: IP-One accumulation assay, FP F265A mutant; format: cell-based; conditions: F265A mutant vs WT FP; IP1 accumulation, AD293 cells; single values of n = 3 independent samples
T12 construct: Flag; expressed in transfected cells; host or cells: AD293 cells
Experimental: as §1

FP F205A = target: T13, FP F205A (Homo sapiens, UniProt P43088, F205A); experiment: IP-One accumulation assay, FP F205A mutant; format: cell-based; conditions: F205A mutant vs WT FP; IP1 accumulation, AD293 cells; single values of n = 3 independent samples
T13 construct: Flag; expressed in transfected cells; host or cells: AD293 cells
Experimental: as §1

FP I290A = target: T14, FP I290A (Homo sapiens, UniProt P43088, L290A); experiment: IP-One accumulation assay, FP I290A mutant; format: cell-based; conditions: I290A mutant vs WT FP; IP1 accumulation, AD293 cells; single values of n = 3 independent samples
T14 construct: Flag; expressed in transfected cells; host or cells: AD293 cells
Experimental: as §1

EP1 = system: EP1; set-up: method as in PMID 10785618; conditions: cited from earlier work
FP Y92A = target: T15, FP Y92A (Homo sapiens, UniProt P43088, Y92A); experiment: IP-One accumulation assay, FP Y92A mutant; format: cell-based; conditions: Y92 mutant (alanine) vs WT FP
T15 construct: Flag; expressed in transfected cells; host or cells: AD293 cells
Experimental: as §1

T6 sequence (P43088 whole entry S118N): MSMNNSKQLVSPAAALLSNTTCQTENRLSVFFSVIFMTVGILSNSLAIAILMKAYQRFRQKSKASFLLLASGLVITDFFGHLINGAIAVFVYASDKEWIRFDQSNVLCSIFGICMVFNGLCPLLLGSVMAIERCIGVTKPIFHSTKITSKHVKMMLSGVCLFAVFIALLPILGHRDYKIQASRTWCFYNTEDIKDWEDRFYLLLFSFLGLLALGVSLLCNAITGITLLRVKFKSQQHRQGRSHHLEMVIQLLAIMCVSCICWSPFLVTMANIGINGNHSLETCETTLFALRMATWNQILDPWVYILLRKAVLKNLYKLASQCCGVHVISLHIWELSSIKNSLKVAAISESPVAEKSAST
T14 sequence (P43088 whole entry L290A): as the sequence (P43088 whole entry S118N) above, with N118S, L290A counted along it
T5 sequence (P43088 whole entry S118F): as the sequence (P43088 whole entry S118N) above, with N118F counted along it
T4 sequence (P43088 whole entry T294A): as the sequence (P43088 whole entry S118N) above, with N118S, T294A counted along it
T13 sequence (P43088 whole entry F205A): as the sequence (P43088 whole entry S118N) above, with N118S, F205A counted along it
T9 sequence (P43088 whole entry S118A): as the sequence (P43088 whole entry S118N) above, with N118A counted along it
T7 sequence (P43088 whole entry Q297A): as the sequence (P43088 whole entry S118N) above, with N118S, Q297A counted along it
T12 sequence (P43088 whole entry F265A): as the sequence (P43088 whole entry S118N) above, with N118S, F265A counted along it
T8 sequence (P43088 whole entry W185A): as the sequence (P43088 whole entry S118N) above, with N118S, W185A counted along it
T3 sequence (P43088 whole entry I298A): as the sequence (P43088 whole entry S118N) above, with N118S, I298A counted along it
T10 sequence (P43088 whole entry R291A): as the sequence (P43088 whole entry S118N) above, with N118S, R291A counted along it
T15 sequence (P43088 whole entry Y92A): as the sequence (P43088 whole entry S118N) above, with Y92A, N118S counted along it
T1 sequence (P43088 whole entry S33A): as the sequence (P43088 whole entry S118N) above, with S33A, N118S counted along it
T2 sequence (P43088 whole entry T184A): as the sequence (P43088 whole entry S118N) above, with N118S, T184A counted along it
T11 sequence (P43088 whole entry M115A): as the sequence (P43088 whole entry S118N) above, with M115A, N118S counted along it

## O=C(O)CCC/C=C\C[C@@H]1[C@@H](CC[C@@H](O)CCc2ccccc2)[C@H](O)C[C@@H]1O [LTPA, Latanoprost acid]
FP S33A
  effect of mutation on agonist affinity / potency (in words): significantly decreased the potency
FP T184A
  effect of mutation on agonist activity / potency (in words): significantly decreased the potency
EP3
  EC50: 17 µM
FP I298A
  ∆pEC50 (pEC50 of agonist to mutant minus pEC50 to WT): -1.8 and -2.1
FP T294A; T294A mutant vs WT FP, IP1 accumulation, AD293 cells, single values of n = 3 independent samples
  ∆pEC50 (pEC50 of agonist to mutant minus pEC50 to WT): -2.0 and -1.8 and -1.9
FP T294A; T294 to alanine vs WT FP
  effect of mutation on agonist affinity / potency (in words): significantly decreased the potency
FP; FP versus EP1 and EP3
  selectivity enhancement compared to PGF2α: more than 100 times
FP; FP
  EC50: 0.0036 µM
FP S118F
  ∆pEC50 (pEC50 of agonist to mutant minus pEC50 to WT): -1.0 and -0.9 and -0.8
FP S118N; S118N mutant vs WT FP, IP1 accumulation, AD293 cells, single values of n = 3 independent samples
  ∆pEC50 (pEC50 of agonist to mutant minus pEC50 to WT): -1.0 and -1.1 and -1.2
FP S118N; S118 to asparagine vs WT FP
  effect of mutation on agonist potency (in words): significantly reduced the potency
FP Q297A
  ∆pEC50 (pEC50 of agonist to mutant minus pEC50 to WT): -1.5 and -1.4
FP W185A
  ∆pEC50 (pEC50 of agonist to mutant minus pEC50 to WT): -2.9 and -2.7
FP S118A; S118A mutant vs WT FP, IP1 accumulation, AD293 cells, single values of n = 3 independent samples
  ∆pEC50 (pEC50 of agonist to mutant minus pEC50 to WT): -1.0 and -0.9
FP S118A; S118 to alanine vs WT FP
  effect of mutation on agonist potency (in words): significantly reduced the potency
FP R291A
  effect of mutation on agonist activity / potency (in words): significantly decreased the potency
FP M115A
  effect of mutation on agonist potency (in words): significantly decreased the potency
FP F265A
  ∆pEC50 (pEC50 of agonist to mutant minus pEC50 to WT): -2.5 and -2.2
FP F205A
  ∆pEC50 (pEC50 of agonist to mutant minus pEC50 to WT): -2.3 and -2.1 and -2.2
FP I290A
  ∆pEC50 (pEC50 of agonist to mutant minus pEC50 to WT): -1.1 and -1.3 and -1.0
EP1
  EC50: 6.9 µM
FP Y92A
  effect of mutation on agonist activity / potency (in words): significantly decreased the potency
